Columns and labels:
[1] = system: wild-type (WT) C57BL/6 mice; conditions: cited from earlier work
[2] = system: SHIP-1; conditions: temporal inhibition of SHIP-1; cited from earlier work
[3] = system: collagen-induced arthritis (CIA) in DBA/1 mice; experiment: Collagen-induced arthritis (CIA) intervention model, 3AC after second immunization; assay type: in vivo, mouse
[4] = system: DBA/1 mice; experiment: 3AC i.p. daily for 7 days in DBA/1 mice: Western blot and flow cytometry; assay type: in vivo, mouse
Source text: Mice. All animals were maintained in pathogen-free conditions and all animal procedures followed protocols approved by the Institutional Animal Care and Use Committee (IACUC) of Rhode Island Hospital. The SHIP-1 knockout (KO) mice (Inpp5d<tm1Dmt>/J, Stock #003534) on a mixed genetic background (129/C57BL/6) were purchased from the Jackson Laboratory, Bar Harbor, ME, and backcrossed with C57BL/6 mice (Stock #000664, the Jackson Laboratory) for 5 generations. Heterozygous (SHIP-1^+/−) mice were intercrossed to obtain homozygous progeny (SHIP-1^−/−). Wild-type (WT) littermates (SHIP-1^+/+) of same age as SHIP1 KO mice were used as controls. DBA/1J mice (Stock #000670) were also purchased from the Jackson Laboratory.
Chemicals and reagents. Specific SHIP-1 inhibitor 3AC was purchased from Echelon Biosciences (Salt Lake, UT) and suspended in 0.3% Klucel (Sigma-Aldrich, St. Louis, MO) solution. The 3AC suspension was stirred by sonication and sterile filtered before injection. The 0.3% Klucel solution was used as a vehicle control.
Immunoblotting. Splenocytes were isolated from C57BL/6 WT and SHIP1 KO mice, and DBA/1 mice with or without 3AC treatment. The cells were then lysed with RIPA buffer containing Halt™ Protease and Phosphatase Inhibitor Cocktail (Thermo Scientific, Rockford, IL). Total lysates (30 μg/sample) were loaded on an SDS-PAGE gel and transferred onto an Immuno-Blot PVDF membrane (Bio-Rad, Hercules, CA). The membranes were first blocked and then probed with antibodies in TBS (20 mM Tris and 150 mM NaCl) containing 0.1% Tween-20 and 5% skim milk. Antibodies against SHIP-1 (P1C1) (sc-8425) and β-Actin (2A3) were purchased from Santa Cruz Biotechnology (Dallas, TX). Blots were developed by using a goat anti-mouse IgG antibody conjugated IRDye 800CW and imaged with an Odyssey imager (LI-COR, Lincoln, NE).
Flow cytometry analysis. Peripheral blood (PB) samples were collected from the retro-orbital sinus of mice on the indicated days. Bone marrow (BM) of femurs and tibiae and spleens were isolated from sacrificed mice. Following treatment with red blood cell lysing buffer (Sigma-Aldrich) and filtration through a nylon mesh, peripheral blood mononuclear cells (PBMCs), splenocytes, and whole BM cells were isolated and suspended in phosphate-buffered saline (PBS) containing 2% FBS. These cells were labeled with fluorophore-conjugated antibodies and subjected to flow cytometry. All antibodies used in flow cytometry were purchased from BioLegend (San Diego, CA): Alexa Fluor 488 anti-mouse CD11b, APC anti-mouse Gr-1, PE anti-mouse CD3e, APC/Cy7 anti-mouse B220, Alexa Flour 488 anti-mouse CD4, and APC anti-mouse CD25. 4′,6-Diamidino-2-Phenylindole (DAPI) was used to exclude DAPI+ dead cells during flow cytometry analysis. Data were acquired using LSR II flow cytometer (BD Biosciences) and analyzed with FlowJo software (FlowJo, Ashland, OR).
Statistical analysis. Data are shown as the mean values±standard error of the mean (SEM). The significance of difference was calculated with unpaired two-tailed Student's t-test or one-way ANOVA when comparing more than 2 groups by using GraphPad Prism (GraphPad Software, Inc., La Jolla, CA). P values less than 0.05 were considered to be statistically significant.

[5] = system: collagen-induced arthritis (CIA) in DBA/1 mice; experiment: Collagen-induced arthritis (CIA) prevention model, 3AC pre-treatment; assay type: in vivo, mouse
[6] = system: CIA in C57BL/6 WT and SHIP1 KO mice; experiment: CIA in C57BL/6 WT and SHIP1 KO mice; assay type: in vivo, mouse
[7] = system: mice; conditions: as seen in SHIP-1 KO mice; cited from earlier work
[8] = system: hematopoietic cancer cells; conditions: in vitro; cited from earlier work
[9] = biological target: T1, SHIP1 (Homo sapiens, UniProt Q92835); conditions: read-out: IC50 SHIP-1; cited from earlier work
T1 sequence (Q92835 1-1189): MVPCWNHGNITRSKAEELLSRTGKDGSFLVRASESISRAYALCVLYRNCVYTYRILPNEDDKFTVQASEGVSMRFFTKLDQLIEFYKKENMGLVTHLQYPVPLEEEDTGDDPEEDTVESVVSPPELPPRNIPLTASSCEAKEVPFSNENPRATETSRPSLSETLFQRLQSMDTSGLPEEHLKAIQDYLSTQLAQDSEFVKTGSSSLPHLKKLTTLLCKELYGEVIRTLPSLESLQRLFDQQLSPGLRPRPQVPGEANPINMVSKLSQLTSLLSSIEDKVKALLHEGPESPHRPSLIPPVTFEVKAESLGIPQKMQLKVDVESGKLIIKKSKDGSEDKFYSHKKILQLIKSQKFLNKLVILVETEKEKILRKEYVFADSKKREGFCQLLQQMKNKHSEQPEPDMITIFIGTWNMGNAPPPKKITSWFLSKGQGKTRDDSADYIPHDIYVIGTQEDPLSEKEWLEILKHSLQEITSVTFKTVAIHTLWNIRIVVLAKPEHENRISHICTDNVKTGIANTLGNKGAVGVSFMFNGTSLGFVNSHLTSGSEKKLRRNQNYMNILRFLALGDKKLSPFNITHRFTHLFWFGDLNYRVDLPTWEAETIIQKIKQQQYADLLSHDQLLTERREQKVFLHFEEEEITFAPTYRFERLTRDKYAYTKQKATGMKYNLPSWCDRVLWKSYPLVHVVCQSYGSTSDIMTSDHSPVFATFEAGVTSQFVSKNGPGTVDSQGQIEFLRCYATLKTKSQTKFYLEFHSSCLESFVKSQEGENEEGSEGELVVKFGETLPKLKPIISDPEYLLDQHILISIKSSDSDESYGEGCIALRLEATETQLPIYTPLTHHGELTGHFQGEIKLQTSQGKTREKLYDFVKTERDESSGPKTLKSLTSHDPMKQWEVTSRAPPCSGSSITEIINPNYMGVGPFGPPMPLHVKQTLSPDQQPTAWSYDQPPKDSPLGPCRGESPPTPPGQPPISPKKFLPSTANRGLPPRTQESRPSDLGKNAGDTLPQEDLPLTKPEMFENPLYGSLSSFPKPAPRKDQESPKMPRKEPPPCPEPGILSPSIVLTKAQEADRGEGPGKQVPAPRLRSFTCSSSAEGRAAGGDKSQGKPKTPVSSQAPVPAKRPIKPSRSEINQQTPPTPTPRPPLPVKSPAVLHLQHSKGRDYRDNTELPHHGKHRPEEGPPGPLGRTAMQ

[10] = system: xenograft model of multiple myeloma; conditions: cited from earlier work
[11] = 3AC daily for 7 days starting on day 27
[12] = i.p. daily for 7 days, DBA/1 mice
[13] = 3AC daily for 7 days prior to CIA induction, vs vehicle

In the case of `CC(C)CCC[C@@H](C)[C@H]1CC[C@H]2[C@@H]3CC[C@H]4C[C@H](N)CC[C@]4(C)[C@H]3CC[C@]12C` [Compound 3AC, 3α-Aminocholestane], the “myeloid immunoregulatory cell compartment” value ([1]; WT C57BL/6 mice) is listed as “significantly expand”, the “ability of the immune system to prime allogeneic T cell responses” value ([1]; mouse models) is listed as “impairs” and the “SHIP-1 protein stability in cells” value [2] is listed as “reduces protein stability and induces protein degradation”. The CIA incidence [3, 11] was “significantly reduced”, the “CIA severity (clinical score)” value [3, 11] was “significantly reduced” and the “number of total T cell in peripheral blood” value ([3]; day 34) was “Significantly and transiently decreasing”. The “number of Tregs in peripheral blood” value ([3]; mouse, in vivo) was “unchanged”, the “number of Tregs in the spleen” value ([3]; onset and endpoint of the experiment, vs control) was “Comparable number” and the “number of MDSCs in peripheral blood” value ([3]; vs vehicle-treated mice, day 34) was “Significantly but transiently increasing”. For the same molecule, the “CD3+ T cells in PB” value [4, 12] was “significant reduction”, the “CD11b+Gr-1+ MDSCs in BM” value [4, 12] was “increase” and the “CD11b+Gr-1+ MDSCs in peripheral blood (PB)” value [4, 12] was “increase”. The “CD11b+Gr-1+ MDSCs in spleen (SP)” value [4, 12] was “increase”, the “SHIP-1 protein depletion in splenocytes (Western blot)” value [4, 12] was “comparable to that in SHIP1 KO mice” and the “Tregs in SP” value ([4]; vs vehicle control mice) was “significantly elevated level”. The “frequency of CD4+CD25+ Tregs in PB” value ([4]; vs vehicle treated control mice) was “remained unchanged”, the CIA onset [5, 13] was “significant delay” and the “severity of CIA (clinical score)” value [5, 13] was “significant reduction”. For the same molecule, the “misalignment, bone erosion and destruction of joint cartilage (radiographic assessment)” value ([5]; X-ray at day 63) was “nearly absent”, the “time at which swelling and redness of limbs started to appear” value ([5]; after first immunization, 3AC pre-treated DBA/1 mice) was 30 to 40 days and the “swollen and reddish front paws (photographic assessment)” value ([5]; day 42) was “much less so”. The “Tregs in the spleen” value ([5]; following 3AC injection) was “higher number”, the “CD3+ T cells in peripheral blood” value ([5]; till day 21, transient) was “decreased” and the “MDSCs in peripheral blood” value ([5]; till day 21, transient) was “significantly increased”. The “bone erosion (Toluidine Blue)” value ([5]; wrist joint of front paws) was “reduced bone erosion”, the “cartilage damage (Safranin O)” value ([5]; wrist joint of front paws) was “reduced cartilage damage” and the “inflammatory cell infiltration in the arthritic joint (H&E)” value ([5]; wrist joint of front paws) was “reduced inflammatory cell infiltration”. For the same molecule, the “incidence and severity of CIA in SHIP1 KO mice” value ([6]; SHIP1 KO mice treated with 3AC (data not shown)) was “did not improve”, the “CIA development in C57BL/6 WT mice” value ([6]; WT mice with 3AC pre-treatment) was “did not develop CIA” and the pulmonary myeloid infiltration [7] was “did not cause”. The “apoptosis of hematopoietic cancer cells” value [8] was “increases apoptosis”, the IC50 [9] was ~2.5 µM and the “inflammation of peripheral tissues” value [10] was “without association with severe inflammation of peripheral tissues”. For the same molecule, the tumor cell growth [10] was “reduces tumor cell growth”.
